Measured values taken from patent publication US20220047548A1, “SYNERGISTIC COMPOSITIONS COMPRISING (R)-2-(2-OXOPYRROLIDIN-1-YL)BUTANAMIDE AND (S)-2-(2-e OXOPYRROLEDIN-1-YL)BUTANAMEDE IN A NON-RACEMIC RATIO” (Metys Pharmaceuticals AG, priority 2018, published 2022).
Marks after values point to notes of the source that are not given here.

Key:
[1] = test system: PTZ-induced kindling in mice; experiment: PTZ-induced kindling test in mice (tonic and clonic convulsions kindled by once-daily pentylenetetrazole); type: in vivo, mice (adult male CD1); settings: for antiepileptic effect in comparison experiment (in words): Tab. 2 comparison
Method: Adult male CD1 mice (Envigo, Italy 20-25 g weight at arrival), were used. The cages were brought into the experimental room the day before the experiment, for acclimatization purposes. Each treatment group consisted of 15 mice. Mice were fed a standard laboratory diet. Food and water were freely available. Room temperature and relative humidity were constantly kept at 22±2° C. and 55±15%, respectively, and a 12-hour light and 12-hour darkness cycles maintained.
Levetiracetam (batch P102-14050 supplied by Astatech), etiracetam (supplied by Shaanxi Swiden Biotech Co., Ltd. Catalog number E932970), or mixtures of 1 part levetiracetam and 1 part etiracetam (1-to-3 R-to-S-etiracetam), or of 1 part levetiracetam and 0.5 part etiracetam (1-to-5 R-to-S-etiracetam), were dissolved in 1% carboxymethylcellulose (CMC) solution at a formulation strength of 55 mg/mL and orally administered once per day. Compounds were administered every day, from day 1 to day 11, 60 min before PTZ (55 mg/kg i.p.). PTZ was dissolved in saline; following i.p. injection, seizures developed in vehicle-treated mice within about 20 minutes.
The test was performed according to Gower et al. (Eur. J. Pharmacol. 222, 1992, 193-203). Separate groups of male mice were administered orally once daily for 11 consecutive days with levetiracetam (10, 30, or 60 mg/kg p.o.); etiracetam (30 mg/kg p.o.); or 1-to-3 R-to-S-etiracetam (30 mg/kg p.o.); or 1-to-5 R-to-S-etiracetam, (30 mg/kg p.o.); or oral vehicle, 60 min prior to administration of PTZ (pentylenetetrazole, 55.0 mg/kg i.p.). Immediately after the PTZ injection, the mice were placed in individual cages and observed for tonic and clonic seizures.
A chi-square test was used to verify significance between two means of behavioral results. Data were analyzed by the Social Science Statistics Program. P values ≤0.05 were considered significant (link https://www.socscistatistics.com/tests/chisquare/default2.aspx).

[2] = test system: electroshock-induced amnesia; settings: sub-cutaneous injection; rat; cited from earlier work
[3] = Table 2 comparison, 30 mg/kg p.o. once daily 60 min before PTZ 55 mg/kg i.p., Day 1
[4] = Table 2 comparison, 30 mg/kg p.o. once daily 60 min before PTZ 55 mg/kg i.p., Day 2
[5] = Table 2 comparison, 30 mg/kg p.o. once daily 60 min before PTZ 55 mg/kg i.p., Day 3
[6] = Table 2 comparison, 30 mg/kg p.o. once daily 60 min before PTZ 55 mg/kg i.p., Day 4
[7] = Table 2 comparison, 30 mg/kg p.o. once daily 60 min before PTZ 55 mg/kg i.p., Day 5
[8] = Table 2 comparison, 30 mg/kg p.o. once daily 60 min before PTZ 55 mg/kg i.p., Day 6
[9] = Table 2 comparison, 30 mg/kg p.o. once daily 60 min before PTZ 55 mg/kg i.p., Day 7
[10] = Table 2 comparison, 30 mg/kg p.o. once daily 60 min before PTZ 55 mg/kg i.p., Day 8
[11] = Table 2 comparison, 30 mg/kg p.o. once daily 60 min before PTZ 55 mg/kg i.p., Day 9
[12] = Table 2 comparison, 30 mg/kg p.o. once daily 60 min before PTZ 55 mg/kg i.p., Day 10
[13] = Table 2 comparison, 30 mg/kg p.o. once daily 60 min before PTZ 55 mg/kg i.p., Day 11

CCC(C(N)=O)N1CCCC1=O (racemic) [etiracetam, 2-(2-oxopyrrolidin-1-yl)butanamide]
antiepileptic effect in comparison experiment (in words) ([1]; 30 mg/kg p.o.): ineffective | percentage of mice per group with clonic convulsions [1, 3]: 0% | percentage of mice per group with clonic convulsions [1, 4]: 6.6% | percentage of mice per group with clonic convulsions [1, 5]: 13.3% | percentage of mice per group with clonic convulsions [1, 6]: 26.6% | percentage of mice per group with clonic convulsions [1, 7]: 26.6% | percentage of mice per group with clonic convulsions [1, 8]: 46.6% | percentage of mice per group with clonic convulsions [1, 9]: 53.3% | percentage of mice per group with clonic convulsions [1, 10]: 66.6% | percentage of mice per group with clonic convulsions [1, 11]: 86.6% | percentage of mice per group with clonic convulsions [1, 12]: 93.3% | percentage of mice per group with clonic convulsions [1, 13]: 100%

CC[C@H](C(N)=O)N1CCCC1=O [R-etiracetam, (R)-2-(2-oxopyrrolidin-1-yl)butanamide]
potency relative to racemic etiracetam [2]: 10 fold

CC[C@@H](C(N)=O)N1CCCC1=O [levetiracetam, (S)-2-(2-oxopyrrolidin-1-yl)butanamide]
effect on PTZ-induced kindling (in words) ([1]; 10 mg/kg p.o., at the end of the treatment (day 11)): all mice showed tonic or clonic convulsions | antiepileptic effect in comparison experiment (in words) ([1]; 30 mg/kg p.o.): moderately effective | effect on PTZ-induced kindling (in words) ([1]; 30 mg/kg p.o., dose-response experiment (Tab. 1)): intermediate reduction of the effect | incidence of clonic convulsion in the first 6 days ([1]; 60 mg/kg p.o. once daily, days 1-6): ≤ 20% | effect on PTZ-induced kindling vs vehicle treatment group (in words) ([1]; 60 mg/kg p.o., eighth to eleventh day of treatment): statistically significant difference in the proportion of mice exhibiting seizures | percentage of mice per group with clonic convulsions ([1]; Table 1, 10 mg/kg p.o. once daily 60 min before PTZ 55 mg/kg i.p., Day 1): 6.6% | percentage of mice per group with clonic convulsions ([1]; Table 1, 10 mg/kg p.o. once daily 60 min before PTZ 55 mg/kg i.p., Day 2): 6.6% | percentage of mice per group with clonic convulsions ([1]; Table 1, 10 mg/kg p.o. once daily 60 min before PTZ 55 mg/kg i.p., Day 3): 20.0% | percentage of mice per group with clonic convulsions ([1]; Table 1, 10 mg/kg p.o. once daily 60 min before PTZ 55 mg/kg i.p., Day 4): 26.6% | percentage of mice per group with clonic convulsions ([1]; Table 1, 10 mg/kg p.o. once daily 60 min before PTZ 55 mg/kg i.p., Day 5): 26.6% | percentage of mice per group with clonic convulsions ([1]; Table 1, 10 mg/kg p.o. once daily 60 min before PTZ 55 mg/kg i.p., Day 6): 53.0% | percentage of mice per group with clonic convulsions ([1]; Table 1, 10 mg/kg p.o. once daily 60 min before PTZ 55 mg/kg i.p., Day 7): 53.3% | percentage of mice per group with clonic convulsions ([1]; Table 1, 10 mg/kg p.o. once daily 60 min before PTZ 55 mg/kg i.p., Day 8): 73.3% | percentage of mice per group with clonic convulsions ([1]; Table 1, 10 mg/kg p.o. once daily 60 min before PTZ 55 mg/kg i.p., Day 9): 86.6% | percentage of mice per group with clonic convulsions ([1]; Table 1, 10 mg/kg p.o. once daily 60 min before PTZ 55 mg/kg i.p., Day 10): 86.6% | percentage of mice per group with clonic convulsions ([1]; Table 1, 10 mg/kg p.o. once daily 60 min before PTZ 55 mg/kg i.p., Day 11): 100% | percentage of mice per group with clonic convulsions ([1]; Table 1, 30 mg/kg p.o. once daily 60 min before PTZ 55 mg/kg i.p., Day 1): 0% | percentage of mice per group with clonic convulsions ([1]; Table 1, 30 mg/kg p.o. once daily 60 min before PTZ 55 mg/kg i.p., Day 2): 6.6% | percentage of mice per group with clonic convulsions ([1]; Table 1, 30 mg/kg p.o. once daily 60 min before PTZ 55 mg/kg i.p., Day 3): 13.3% | percentage of mice per group with clonic convulsions ([1]; Table 1, 30 mg/kg p.o. once daily 60 min before PTZ 55 mg/kg i.p., Day 4): 20.0% | percentage of mice per group with clonic convulsions ([1]; Table 1, 30 mg/kg p.o. once daily 60 min before PTZ 55 mg/kg i.p., Day 5): 20.0% | percentage of mice per group with clonic convulsions ([1]; Table 1, 30 mg/kg p.o. once daily 60 min before PTZ 55 mg/kg i.p., Day 6): 26.6% | percentage of mice per group with clonic convulsions ([1]; Table 1, 30 mg/kg p.o. once daily 60 min before PTZ 55 mg/kg i.p., Day 7): 33.3% | percentage of mice per group with clonic convulsions ([1]; Table 1, 30 mg/kg p.o. once daily 60 min before PTZ 55 mg/kg i.p., Day 8): 46.6% | percentage of mice per group with clonic convulsions ([1]; Table 1, 30 mg/kg p.o. once daily 60 min before PTZ 55 mg/kg i.p., Day 9): 66.6% | percentage of mice per group with clonic convulsions ([1]; Table 1, 30 mg/kg p.o. once daily 60 min before PTZ 55 mg/kg i.p., Day 10): 66.6% | percentage of mice per group with clonic convulsions ([1]; Table 1, 30 mg/kg p.o. once daily 60 min before PTZ 55 mg/kg i.p., Day 11): 73.3% | percentage of mice per group with clonic convulsions ([1]; Table 1, 60 mg/kg p.o. once daily 60 min before PTZ 55 mg/kg i.p., Day 1): 0% | percentage of mice per group with clonic convulsions ([1]; Table 1, 60 mg/kg p.o. once daily 60 min before PTZ 55 mg/kg i.p., Day 2): 0% | percentage of mice per group with clonic convulsions ([1]; Table 1, 60 mg/kg p.o. once daily 60 min before PTZ 55 mg/kg i.p., Day 3): 6.6% | percentage of mice per group with clonic convulsions ([1]; Table 1, 60 mg/kg p.o. once daily 60 min before PTZ 55 mg/kg i.p., Day 4): 20.0% | percentage of mice per group with clonic convulsions ([1]; Table 1, 60 mg/kg p.o. once daily 60 min before PTZ 55 mg/kg i.p., Day 5): 20.0% | percentage of mice per group with clonic convulsions ([1]; Table 1, 60 mg/kg p.o. once daily 60 min before PTZ 55 mg/kg i.p., Day 6): 20.0% | percentage of mice per group with clonic convulsions ([1]; Table 1, 60 mg/kg p.o. once daily 60 min before PTZ 55 mg/kg i.p., Day 7): 26.6% | percentage of mice per group with clonic convulsions ([1]; Table 1, 60 mg/kg p.o. once daily 60 min before PTZ 55 mg/kg i.p., Day 8): 26.6^# % | percentage of mice per group with clonic convulsions ([1]; Table 1, 60 mg/kg p.o. once daily 60 min before PTZ 55 mg/kg i.p., Day 9): 33.3^# % | percentage of mice per group with clonic convulsions ([1]; Table 1, 60 mg/kg p.o. once daily 60 min before PTZ 55 mg/kg i.p., Day 10): 33.3^# % | percentage of mice per group with clonic convulsions ([1]; Table 1, 60 mg/kg p.o. once daily 60 min before PTZ 55 mg/kg i.p., Day 11): 40% | percentage of mice per group with clonic convulsions [1, 3]: 0% | percentage of mice per group with clonic convulsions [1, 4]: 0% | percentage of mice per group with clonic convulsions [1, 5]: 6.6% | percentage of mice per group with clonic convulsions [1, 6]: 13.3% | percentage of mice per group with clonic convulsions [1, 7]: 20.0% | percentage of mice per group with clonic convulsions [1, 8]: 26.6% | percentage of mice per group with clonic convulsions [1, 9]: 33.3% | percentage of mice per group with clonic convulsions [1, 10]: 46.6% | percentage of mice per group with clonic convulsions [1, 11]: 66.6% | percentage of mice per group with clonic convulsions [1, 12]: 73.3% | percentage of mice per group with clonic convulsions [1, 13]: 73.3%
